Legend:
[1] = biological target: T1, ER-α (Homo sapiens, UniProt P03372); assay: Breast Cancer Cell ER-α In Cell Western Assay (SP1); assay type: cell-based; details: MCF-7 cells, SP1 antibody, 4 or 24 hr post compound addition; for Emax: MCF7, read-out: ER-α In Cell Western Assay (SP1) Max Response; for DC50: read-out: ER-α In Cell Western Assay (SP1) IC50
T1 sequence (P03372 1-595): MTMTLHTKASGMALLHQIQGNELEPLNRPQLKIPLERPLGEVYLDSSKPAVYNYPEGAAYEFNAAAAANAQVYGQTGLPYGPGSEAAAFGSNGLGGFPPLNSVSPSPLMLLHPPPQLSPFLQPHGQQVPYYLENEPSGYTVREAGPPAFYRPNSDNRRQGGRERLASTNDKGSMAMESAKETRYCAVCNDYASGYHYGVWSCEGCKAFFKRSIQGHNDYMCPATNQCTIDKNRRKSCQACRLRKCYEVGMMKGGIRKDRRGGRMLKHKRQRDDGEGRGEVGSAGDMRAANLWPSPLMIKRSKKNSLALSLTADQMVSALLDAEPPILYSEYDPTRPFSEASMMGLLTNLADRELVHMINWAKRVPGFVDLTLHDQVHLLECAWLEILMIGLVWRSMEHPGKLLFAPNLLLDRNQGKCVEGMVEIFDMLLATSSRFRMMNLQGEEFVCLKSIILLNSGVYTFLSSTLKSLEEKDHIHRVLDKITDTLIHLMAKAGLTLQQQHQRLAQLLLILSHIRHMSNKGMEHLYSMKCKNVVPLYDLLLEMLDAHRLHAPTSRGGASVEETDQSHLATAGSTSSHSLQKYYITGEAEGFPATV
Description: MCF-7 cells were adjusted to a concentration of 200,000 cells per mL in RPMI containing 10% charcoal-stripped FBS and 20 mM HEPES. 16 microliters of the cell suspension (3200 cells) was added to each well of a poly-D-lysine 384 well plate, and the cells were incubated overnight to allow the cells to adhere. The following day an eleven point, serial semilog dilution of each compound was added to the cells in 16 μL at a final concentration ranging from 0.3-0.000003 μM. At 4 or 24 hr post compound addition, the cells were fixed (10% formalin in PBS) for 20 minutes. Cells were permeablized in PBS 0.1% Triton and blocked with LICOR blocking buffer (50 μL1/well, 90′). The wells were then incubated overnight at 4° C. with SP1 rabbit monoclonal Ab (Thermo Scientific) diluted 1:1000 in LICOR blocking buffer/0.1% Tween-20. Wells which were treated with blocking buffer with Tween but no antibody were used as a background control. Wells were washed with 0.1% Tween-20/PBS and then incubated in goat anti-rabbit IRDye™ 800CW (LICOR Inc.; 1:1000) and DRAQ5 DNA dye (1:2000 for 2 mM stock) diluted in LICOR blocking buffer containing 0.1% Tween-20 and 0.01% SDS for 60 minutes. Cells were washed (50 μl/well, 5′ each) in 0.1% Tween-20/PBS. Plates were scanned on a LICOR Odyssey infrared imaging system. Integrated intensities in the 800 nm channel and 700 nm channel were measured to determine levels of ER and DNA respectively. Percent ER levels were determined as follows: (Integrated intensity 800 nm sample/integrated intensity 700 nm sample)/(Integrated intensity 800 nm untreated cells/integrated intensity 700 nm untreated cells)×100=% ER levels.

[2] = tested on: MCF-7 cells; assay: Breast Cancer Cell Viability Assay (MCF-7, CellTiter-Glo); assay type: cell-based; details: 5 days' compound exposure; for IC50: Homo sapiens, MCF7, 120 h
Description: MCF-7 cells were adjusted to a concentration of 20,000 cells per mL in RPMI containing 10% FBS and 20 mM HEPES. 16 microliters of the cell suspension (320 cells) was added to each well of a 384 well plate, and the cells were incubated overnight to allow the cells to adhere. The following day an eleven point, serial semilog dilution of each compound was added to the cells in 16 μL at a final concentration ranging from 0.3-0.000003 μM. After 5 days' compound exposure, 16 μL of CellTiter-GLo (Promega, Madison Wis.) was added to the cells the relative luminescence units (RLUs) of each well was determined CellTiter-Glo added to 32 μL of medium without cells was used to obtain a background value. The Percent viability of each sample was determined as follows: (RLU sample-RLU background/RLU untreated cells-RLU background)×100=% viability.

## CC/C(=C(/c1ccc(/C=C/C(=O)O)cc1)c1ccc2[nH]ncc2c1)c1cccc(F)c1 [Compound 17, (E)-3-(4-((E)-2-(3-Fluorophenyl)-1-(1H-indazol-5-yl)but-1-en-1-yl)phenyl)acrylic acid]
[1]
  Emax: ≥ 40%
  DC50: ≤ 100 nM
[2]
  MCF7 Viability Assay Max Response: ++ (++ = a single % value ≧ 40%)
  IC50: ≤ 100 nM

## CC/C(=C(/c1ccc(/C=C/C(=O)O)cc1)c1ccc2[nH]ncc2c1)c1ccccc1CC [Compound 18, (E)-3-(4-((E)-2-(2-Ethylphenyl)-1-(1H-indazol-5-yl)but-1-en-1-yl)phenyl)acrylic acid]
[1]
  Emax: ≥ 40%
  DC50: ≤ 100 nM
[2]
  MCF7 Viability Assay Max Response: ++ (++ = a single % value ≧ 40%)
  IC50: ≤ 100 nM

## CC/C(=C(/c1ccc(/C=C/C(=O)O)cc1)c1ccc2[nH]ncc2c1)c1ccccc1C(F)(F)F [Compound 19, (E)-3-(4-((E)-1-(1H-Indazol-5-yl)-2-(2-(trifluoromethyl)phenyl)but-1-en-1-yl)phenyl)acrylic acid]
[1]
  Emax: ≥ 40%
  DC50: ≤ 100 nM
[2]
  MCF7 Viability Assay Max Response: ++ (++ = a single % value ≧ 40%)
  IC50: ≤ 100 nM

## O=C(O)/C=C/c1ccc(/C(=C(/CCCl)c2ccccc2)c2ccc3[nH]ncc3c2)cc1 [Compound 20, (E)-3-(4-((E)-4-Chloro-1-(1H-indazol-5-yl)-2-phenylbut-1-en-1-yl)phenyl)acrylic acid]
[1]
  Emax: ≥ 40%
  DC50: ≤ 100 nM
[2]
  MCF7 Viability Assay Max Response: ++ (++ = a single % value ≧ 40%)
  IC50: ≤ 100 nM

## CC/C(=C(/c1ccc(/C=C/C(=O)O)cc1)c1ccc2[nH]ncc2c1)c1ccccc1C#N [Compound 21, (E)-3-(4-((E)-2-(2-Cyanophenyl)-1-(1H-indazol-5-yl)but-1-en-1-yl)phenyl)acrylic acid]
[1]
  Emax: ≥ 40%
[2]
  MCF7 Viability Assay Max Response: ++ (++ = a single % value ≧ 40%)
  IC50: ≤ 100 nM

## CC/C(=C(/c1ccc(/C=C/C(=O)O)cc1)c1ccc2[nH]ncc2c1)c1ccc(F)cc1F [Compound 22, (E)-3-(4-((E)-2-(2,4-Difluorophenyl)-1-(1H-indazol-5-yl)but-1-en-1-yl)phenyl)acrylic acid]
[1]
  Emax: ≥ 40%
  DC50: ≤ 100 nM
[2]
  MCF7 Viability Assay Max Response: ++ (++ = a single % value ≧ 40%)
  IC50: ≤ 100 nM

## CC/C(=C(/c1ccc(/C=C/C(=O)O)cc1)c1ccc2[nH]ncc2c1)c1cccc(F)c1Cl [Compound 23, (E)-3-(4-((E)-2-(2-Chloro-3-fluorophenyl)-1-(1H-indazol-5-yl)but-1-en-1-yl)phenyl)acrylic acid]
[1]
  Emax: ≥ 40%
  DC50: ≤ 100 nM
[2]
  MCF7 Viability Assay Max Response: ++ (++ = a single % value ≧ 40%)
  IC50: ≤ 100 nM

## O=C(O)/C=C/c1ccc(/C(=C(\c2ccccc2)C2CC2)c2ccc3[nH]ncc3c2)cc1 [Compound 24, (E)-3-(4-((E)-2-Cyclopropyl-1-(1H-indazol-5-yl)-2-phenylvinyl)phenyl)acrylic acid]
[1]
  Emax: ≥ 40%
  DC50: ≤ 100 nM
[2]
  MCF7 Viability Assay Max Response: ++ (++ = a single % value ≧ 40%)
  IC50: ≤ 100 nM

## CC/C(=C(/c1ccc(/C=C/C(=O)O)cc1)c1ccc2[nH]ncc2c1)c1ccc(F)cc1C [Compound 25, (E)-3-(4-((E)-2-(4-Fluoro-2-methylphenyl)-1-(1H-indazol-5-yl)but-1-en-1-yl)phenyl)acrylic acid]
[1]
  Emax: ≥ 40%
  DC50: ≤ 100 nM
[2]
  MCF7 Viability Assay Max Response: ++ (++ = a single % value ≧ 40%)
  IC50: ≤ 100 nM

## CC/C(=C(/c1ccc(/C=C/C(=O)O)cc1)c1ccc2[nH]ncc2c1)c1c(F)cccc1F [Compound 26, (E)-3-(4-((E)-2-(2,6-Difluorophenyl)-1-(1H-indazol-5-yl)but-1-en-1-yl)phenyl)acrylic acid]
[1]
  Emax: ≥ 40%
  DC50: ≤ 100 nM
[2]
  MCF7 Viability Assay Max Response: ++ (++ = a single % value ≧ 40%)
  IC50: ≤ 100 nM

## CC/C(=C(/c1ccc(/C=C/C(=O)O)cc1)c1ccc2[nH]ncc2c1)c1c(Cl)cccc1Cl [Compound 27, (E)-3-(4-((E)-2-(2,6-Dichlorophenyl)-1-(1H-indazol-5-yl)but-1-en-1-yl)phenyl)acrylic acid]
[1]
  Emax: ≥ 40%
  DC50: ≤ 100 nM
[2]
  MCF7 Viability Assay Max Response: ++ (++ = a single % value ≧ 40%)
  IC50: ≤ 100 nM

## [2H]C([2H])([2H])C/C(=C(/c1ccc(/C=C/C(=O)O)cc1)c1ccc2[nH]ncc2c1)c1ccccc1 [Compound 28, (E)-3-(4-((E)-4,4,4-Trideutero-1-(1H-indazol-5-yl)-2-phenylbut-1-en-1-yl)phenyl)acrylic acid]
[1]
  Emax: ≥ 40%
[2]
  MCF7 Viability Assay Max Response: ++ (++ = a single % value ≧ 40%)
  IC50: ≤ 100 nM

## CC/C(=C(/c1ccc(/C=C/C(=O)O)cc1)c1ccc2[nH]ncc2c1)c1ccc(F)c(C)c1 [Compound 29, (E)-3-(4-((E)-2-(4-Fluoro-3-methylphenyl)-1-(1H-indazol-5-yl)but-1-en-1-yl)phenyl)acrylic acid]
[1]
  Emax: ≥ 40%
  DC50: ≤ 100 nM
[2]
  MCF7 Viability Assay Max Response: ++ (++ = a single % value ≧ 40%)
  IC50: ≤ 100 nM

## CC/C(=C(/c1ccc(/C=C/C(=O)O)cc1)c1ccc2[nH]ncc2c1)c1cc(F)ccc1C [Compound 30, (E)-3-(4-((E)-2-(5-Fluoro-2-methylphenyl)-1-(1H-indazol-5-yl)but-1-en-1-yl)phenyl)acrylic acid]
[1]
  Emax: ≥ 40%
  DC50: ≤ 100 nM
[2]
  MCF7 Viability Assay Max Response: ++ (++ = a single % value ≧ 40%)
  IC50: ≤ 100 nM

## CC/C(=C(/c1ccc(/C=C/C(=O)O)cc1)c1ccc2[nH]ncc2c1)c1cccc(F)c1F [Compound 31, (E)-3-(4-((E)-2-(2,3-Difluorophenyl)-1-(1H-indazol-5-yl)but-1-en-1-yl)phenyl)acrylic acid]
[1]
  Emax: ≥ 40%
  DC50: ≤ 100 nM
[2]
  MCF7 Viability Assay Max Response: ++ (++ = a single % value ≧ 40%)
  IC50: ≤ 100 nM

## CC/C(=C(/c1ccc(/C=C/C(=O)O)cc1)c1ccc2[nH]ncc2c1)c1cc(F)ccc1F [Compound 32, (E)-3-(4-((E)-2-(2,5-Difluorophenyl)-1-(1H-indazol-5-yl)but-1-en-1-yl)phenyl)acrylic acid]
[1]
  Emax: ≥ 40%
  DC50: ≤ 100 nM
[2]
  MCF7 Viability Assay Max Response: ++ (++ = a single % value ≧ 40%)
  IC50: ≤ 100 nM

## CC/C(=C(/c1ccc(/C=C/C(=O)O)cc1)c1ccc2[nH]ncc2c1)c1cc(F)ccc1Cl [Compound 33, (E)-3-(4-((E)-2-(2-Chloro-5-fluorophenyl)-1-(1H-indazol-5-yl)but-1-en-1-yl)phenyl)acrylic acid]
[1]
  Emax: ≥ 40%
  DC50: ≤ 100 nM
[2]
  MCF7 Viability Assay Max Response: ++ (++ = a single % value ≧ 40%)
  IC50: ≤ 100 nM

## CC/C(=C(/c1ccc(/C=C/C(=O)O)cc1)c1ccc2[nH]ncc2c1)c1c(C)cccc1Cl [Compound 34, (E)-3-(4-((E)-2-(2-Chloro-6-methylphenyl)-1-(1H-indazol-5-yl)but-1-en-1 yl)phenyl)acrylic acid]
[1]
  Emax: ≥ 40%
  DC50: ≤ 100 nM
[2]
  MCF7 Viability Assay Max Response: ++ (++ = a single % value ≧ 40%)
  IC50: ≤ 100 nM

## CC/C(=C(/c1ccc(/C=C/C(=O)O)cc1)c1cc(Cl)c2[nH]ncc2c1)c1ccccc1 [Compound 35, (E)-3-(4-((E)-1-(7-Chloro-1H-indazol-5-yl)-2-phenylbut-1-en-1-yl)phenyl)acrylic acid]
[1]
  Emax: ≥ 40%
  DC50: ≤ 100 nM
[2]
  MCF7 Viability Assay Max Response: ++ (++ = a single % value ≧ 40%)
  IC50: ≤ 100 nM

Source: US8455534B2, “Estrogen receptor modulators and uses thereof” (Aragon Pharmaceuticals, Inc., priority 2010, dated 2013)
